Measured values reported in patent US20150190421A1, “POLOXAMERS FOR THE IMPROVEMENT OF RESPIRATORY FUNCTION” (PHRIXUS PHARMACEUTICALS, INC., priority 2012, published 2015).
“Also recorded” adds a separate entry of the source. Marks after values point to notes of the source that are not given here.

Columns and labels:
[1] = tested on: diaphragm muscle of mdx mice; assay: Diaphragm histology (centralized nuclei, fiber size and density, fibrosis), mdx mice; type: in vivo, mouse; conditions: prednisone 1 mg/kg QD s.q., 22 weeks
Procedure: Analysis of centralized nuclei. One marker of degeneration is the amount of compensatory regeneration occurring within the muscle. Since newly regenerating fibers have centrally located nuclei, the percentage of fibers with centralized nuclei (CN) from the diaphragm of each animal was determined (FIG. 2A).
Analysis of fiber size and density. The cross-sectional area of regenerating or recently regenerated fibers is expected to be smaller than that of mature muscle fibers. The cross sectional area of approximately 50 muscle fibers was measured from each mouse (600 fibers/group).
Analysis of fibrosis. Fibrosis was measured as the percentage of […] area/total area in Masson's trichrome stained sections.

[2] = tested on: mdx mouse model of Duchenne Muscular Dystrophy; assay: Whole Body Plethysmography respiration monitoring, mdx mice, 22 weeks daily s.q. dosing; type: in vivo
Procedure: Animals. Male C57BL/10SnJ, hereafter referred to as wild-type (WT), and male mdx C57B1/10ScSn-Dmdmdx mice were used in the study. All protocols were approved by the University of Michigan (UM) UCUCA and all studies were performed in facilities run by the University of Michigan Unit of Laboratory Animal Medicine. […] Mice were purchased from Jackson Laboratories and aged in UM facilities. All ages given are ±2 weeks. Mice were randomized into groups upon receipt from Jackson Laboratories in order to minimize the need for additional cages. […] All compounds were administered subcutaneously.
Respiration was monitored using a Buxco Whole Body Plethysmography (WBP) monitoring chambers for mouse Cat. No. PLY4211 (Buxco Research Systems, Wilmington, N.C.) according to the manufacturer's instructions. In this protocol animals are unrestrained and un-anesthetized. Monitoring was performed in the room in which the animals were housed. The mice were monitored for 2 months prior to initiation of treatment to acclimate the mice to the procedure and establish baseline respiratory parameters done with the last weeks reading prior to initiation of dosing. Mice were randomized into groups based on tidal volume measurements. Upon initiation of dosing, mice were monitored every 2 weeks. Mice were placed in monitoring chambers and allowed to acclimate for 15 minutes prior to recording respiratory parameters. Respiration was then monitored for 10 minutes. Each mouse was monitored in the same chamber for each reading throughout the study to minimize variability.
During acclimation and measurements, the room door was shut and technician movement and room noise was kept to a minimum to allow for complete acclimation. […] Chambers were wiped clean between animals. Data was monitored and collected using FinePoint software (Cat. No. SFT4000) purchased from Buxco Research Systems (Wilmington, N.C.). […] Comparisons between groups of daily, every other day or weekly dosed animals were done by one-way ANOVA using the Neumann-Keuls post-hoc test. Significance was P<0.05. N=10-12 animals per group.
Abbreviations used include the following (units): F, respiration rate (breaths/minute), TV, tidal volume, (ml); TV/BWT, ratio of tidal volume to body weight, (mL/kg); MV, minute volume, (mL/min); Penh, enhanced pause, (no units); Rpef, the ratio of the time from start of expiration to peak expiratory flow to Te (no units); PIF, peak inspiratory flow, (mL sec); PEF, peak expiratory flow, (mL/sec); Te, expiratory time (sec); Ti, inspiratory time, (sec); Tr, relaxation time, (sec).
Respiration was monitored every 2 weeks by WBP.

[3] = Table 3, prednisone 1 mg/kg daily, 22 wks, mean ± S.D.
[4] = prednisone 1 mg/kg QD s.q., 22 weeks, mean ± S.D.

Structure (SMILES): C[C@]12C=CC(=O)C=C1CC[C@@H]1[C@@H]2C(=O)C[C@@]2(C)[C@H]1CC[C@]2(O)C(=O)CO [Prednisone, prednisone]
- percentage of fibers with centralized nuclei (CN), diaphragm [1]: nearly the same percentage of fibers with CN as the mdx saline group; also recorded: higher percentage of muscle fibers in the regeneration process than in the P-188 treated groups
- TV, 22 wks [2, 3]: 0.332 ± 0.021 mL
- TV/BW, 22 wks [2, 3]: 9.9 ± 1.2 mL/kg
- increase in TV/BW compared with mdx saline (cause) ([2]; prednisone 1 mg/kg QD s.q., 22 weeks): due to a loss of body weight and not due to improvement in TV
- F (respiration rate) [2, 4]: 328 ± 30 breaths/min
- MV (minute volume) [2, 4]: 107 ± 11^b ml/min
- PEF (peak expiratory flow) [2, 4]: 4.2 ± 0.4^b mL/sec
- PIF (peak inspiratory flow) [2, 4]: 8.3 ± 0.8^c mL/sec
- Penh (enhanced pause) [2, 4]: 0.393 ± 0.080
- Rpef [2, 4]: 0.496 ± 0.085
- TV (tidal volume) [2, 4]: 0.332 ± 0.021^c mL
- Ti (inspiratory time) [2, 4]: 0.068 ± 0.006 s
- Tr (relaxation time) [2, 4]: 0.094 ± 0.018 s
